Earlier results, collected in US20010034325A1, “Dietary modulators of gamma glutamyl transpeptidase” (priority 2000, published 2001).

What was measured:
[1] = target: GGTP (Homo sapiens, UniProt P19440); settings: Misra et al. 1996
[2] = test system: GGT; settings: 12-o-tetradecanoyl phorbol-13-acetate induced activity

GGTP, sequence (P19440 whole entry): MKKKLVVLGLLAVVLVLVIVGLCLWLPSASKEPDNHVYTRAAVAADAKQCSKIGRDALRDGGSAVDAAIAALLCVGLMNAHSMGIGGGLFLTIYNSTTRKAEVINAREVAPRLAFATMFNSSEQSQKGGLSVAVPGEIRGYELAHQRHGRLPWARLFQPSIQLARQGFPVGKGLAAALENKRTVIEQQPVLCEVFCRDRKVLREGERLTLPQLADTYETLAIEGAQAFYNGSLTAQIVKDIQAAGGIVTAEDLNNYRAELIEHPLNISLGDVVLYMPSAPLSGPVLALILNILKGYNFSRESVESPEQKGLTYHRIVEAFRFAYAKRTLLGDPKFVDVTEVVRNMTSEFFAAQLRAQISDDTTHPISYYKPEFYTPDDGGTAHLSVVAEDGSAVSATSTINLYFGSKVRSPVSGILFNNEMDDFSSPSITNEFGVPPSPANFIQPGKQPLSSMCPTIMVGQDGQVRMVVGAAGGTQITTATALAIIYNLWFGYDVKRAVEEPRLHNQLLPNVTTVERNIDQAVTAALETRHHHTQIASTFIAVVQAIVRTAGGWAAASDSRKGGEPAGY

effect on diabetes [1]	SMILES	inhibition of GGT levels [2]
prevents overt diabetes	N[C@H](C(=O)O)[C@@H]1CC(Cl)=NO1 [acivicin]	
	C=CCSCC=C [diallylsulfide (DAS), diallylsulfide]	inhibited significantly
	OCc1c[nH]c2ccccc12 [indole-3-carbinol (I3C), indole-3-carbinol]	inhibited significantly
